In ChEMBL document CHEMBL1151283, “Bis(bibenzyls) from liverworts inhibit lipopolysaccharide-induced inducible NOS in RAW 264.7 cells: a study of structure-activity relationships and molecular mechanism” (J Nat Prod, 2005):
Calls of active or inactive are those of the source. The calls are words filed in the database; no cut-off is given here.

tested on: RAW264.7; test: Inhibition of iNOS mRNA expression in mouse RAW264.7 cells […] by RT-PCR analysis; format: functional, cell-based

Compound | Activity
Oc1cc2cc(c1O)Oc1ccc(cc1)CCc1cccc(O)c1Oc1cccc(c1)CC2 [MARCHANTIN A] | inactive

tested on: RAW264.7; test: Inhibition of LPS-induced iNOS mRNA expression in mouse RAW264.7 cells […] by RT-PCR analysis; format: functional, cell-based

Compound | Activity
Oc1cc2cc(c1O)Oc1ccc(cc1)CCc1cccc(O)c1Oc1cccc(c1)CC2 [MARCHANTIN A] | Dose-dependent effect

tested on: RAW264.7; test: Inhibition of LPS-induced nitric oxide production in mouse RAW264.7 cells pretreated 1 hr before LPS challenge after 24 hrs by Griess reagent method; format: functional, cell-based

Compound | IC50
COc1cccc(CCc2ccc(O)c(Oc3ccc(CCc4cccc(O)c4)cc3)c2)c1 | 49.9 µM
Oc1ccc2cc1Oc1ccc(cc1)CCc1cccc(c1)Oc1c(O)cccc1CC2 [ISOMARCHANTIN C] | > 100 µM
Oc1ccc2c(c1)CCc1ccc(O)c(c1)-c1cc(ccc1O)/C=C\c1cccc(c1)O2 [ISOPLAGIOCHIN A] | > 100 µM
Oc1ccc2cc1-c1cc(ccc1O)CCc1c(ccc(O)c1O)Oc1cccc(c1)/C=C\2 [ISOPLAGIOCHIN B] | > 100 µM
COc1cccc2c1Oc1cccc(c1)CCc1cc(OC)c(OC)c(c1)Oc1ccc(cc1)CC2 [MARCHANTIN A TRIMETHYL ETHER] | 42.5 µM
COc1cc2cc(c1OC)Oc1ccc(cc1)CCc1ccc(OC)c(OC)c1Oc1cccc(c1)CC2 [MARCHANTIN B TETRAMETHYL ETHER] | 42.5 µM
Oc1cccc(CCc2ccc(Oc3cc(CCc4cccc(O)c4)cc(O)c3O)cc2)c1 [PERROTETTIN F] | 7.42 µM
Oc1ccc2c(c1)/C=C/c1ccc(O)c(c1)Oc1ccc(cc1)CCc1cccc(c1)O2 [PTYCHANTOL A] | > 100 µM

Other lines, results leading:

IC50 | Compound
14.3 µM | Oc1ccc2c(c1)CCc1ccc(O)c(c1)-c1cc(ccc1O)CCc1ccc-2c(O)c1 [ISOPLAGIOCHIN D]
1.44 µM | Oc1cc2cc(c1O)Oc1ccc(cc1)CCc1cccc(O)c1Oc1cccc(c1)CC2 [MARCHANTIN A]
4.1 µM | Oc1cc2cc(c1O)Oc1ccc(cc1)CCc1ccc(O)c(O)c1Oc1cccc(c1)CC2 [MARCHANTIN B]
10.2 µM | Oc1ccc2cc1Oc1cccc(c1)CC(O)c1cc(O)c(O)c(c1)Oc1ccc(cc1)CC2 (stereo not given) [MARCHANTIN D]
62.2 µM | COC1Cc2cccc(c2)Oc2c(O)cccc2CCc2ccc(cc2)Oc2cc1cc(O)c2O (stereo not given) [MARCHANTIN E]
15.3 µM | Oc1ccc2cc1Oc1ccc(cc1)CCc1cc(O)c(O)c(c1)Oc1cccc(c1)CC2 [MARCHANTIN H]
9.07 µM | COc1cc2c(cc1O)-c1ccc(O)cc1CCc1cc(O)c(O)c(c1)Oc1ccc(cc1)CC2 [PLAGIOCHIN A]
> 100 µM | Oc1ccc2c(c1)CCc1ccc(cc1)Oc1cc(ccc1O)CCc1ccc-2c(O)c1 [RICCARDI C]
5 µM | COc1ccc2cc1Oc1ccc(cc1)CCc1cc(O)ccc1-c1ccc(cc1O)CC2 [RICCARDI F]
2.5 µM | COc1ccc2c(c1)CCc1ccc(cc1)Oc1cc(ccc1O)CCc1ccc-2c(O)c1 [RICCARDIN A]
